In the experiment the test system is HBV. In words: HBV inhibition assay: anti-HBV activity in vitro in HepG2.2.15 cells (extracellular HBV DNA by qPCR). It is filed as cell-based. Particulars: Hepatitis B virus, 120 h, five days after compound treatment, extracellular HBV DNA in culture supernatant by qPCR, concentration at which HBV replication is inhibited by 50%. An outline of the steps: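 HepG2.2.15 cells (stably carrying HBV genome) treated with half-log serially diluted compounds at 0.5% DMSO final for five days. Extracellular HBV DNA in supernatant quantified by qPCR after Proteinase K digestion; EC50 is concentration giving 50% inhibition of replication.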
In general terms: In qPCR the cycle at which signal appears reflects the starting amount.
Broadly, the EC50 is the concentration giving half of the maximal effect. Low values mean a more potent agent, high ones a less potent agent. `C[C@H]1Cn2ncc(N3CC(C(=O)N4CCOC(C)(C)C4)CC3=O)c2CN1C(=O)Nc1cc(F)c(F)c(F)c1` (stereo partly drawn) [Example 393, (6S)-3-[4-(2,2-dimethylmorpholine-4-carbonyl)-2-oxo-pyrrolidin-1-yl]-6-methyl-N-(3,4,5-trifluorophenyl)-6,7-dihydro-4H-pyrazolo[1,5-a]pyrazine-5-carboxamide] showed an EC50 of 70 nM.
The same measure for `C[C@H]1Cn2ncc(N3CC(C)(C)OC3=O)c2CN1C(=O)Nc1ccnc(C(F)F)c1` [Example 272, (6S)—N-[2-(difluoromethyl)-4-pyridyl]-3-(5,5-dimethyl-2-oxo-oxazolidin-3-yl)-6-methyl-6,7-dihydro-4H-pyrazolo[1,5-a]pyrazine-5-carboxamide]: 104 nM; for `C[C@H]1Cn2ncc(N3CC(C(F)(F)F)CC3=O)c2CN1C(=O)Nc1cc(F)c(F)c(F)c1` (stereo partly drawn) [Example 259, (6S)-6-methyl-3-[2-oxo-4-(trifluoromethyl)pyrrolidin-1-yl]-N-(3,4,5-trifluorophenyl)-6,7-dihydro-4H-pyrazolo[1,5-a]pyrazine-5-carboxamide]: 23 nM; for `C[C@H]1Cn2ncc(N3CC(c4ccccn4)CC3=O)c2CN1C(=O)Nc1cc(F)c(F)c(F)c1` (stereo partly drawn) [Example 353, (6S)-6-methyl-3-[2-oxo-4-(2-pyridyl)pyrrolidin-1-yl]-N-(3,4,5-trifluorophenyl)-6,7-dihydro-4H-pyrazolo[1,5-a]pyrazine-5-carboxamide]: 5 nM.
In turn, `C[C@H]1Cn2ncc(N3CC4(CC4)C(O)C3=O)c2CN1C(=O)Nc1cc(F)c(F)c(F)c1` (stereo partly drawn) [Example 424, (6S)-3-(7-hydroxy-6-oxo-5-azaspiro[2.4]heptan-5-yl)-6-methyl-N-(3,4,5-trifluorophenyl)-6,7-dihydro-4H-pyrazolo[1,5-a]pyrazine-5-carboxamide] returned an EC50 of 44 nM.
Next, `O=C(Nc1ccc(F)c(Cl)c1)N1CCn2ncc(N3CCCC3=O)c2C1` [Example 170, N-(3-chloro-4-fluoro-phenyl)-3-(2-oxopyrrolidin-1-yl)-6,7-dihydro-4H-pyrazolo[1,5-a]pyrazine-5-carboxamide]: 46 nM; `C[C@H]1Cn2ncc(N3CC4(CC3=O)CN(C(=O)c3ncco3)C4)c2CN1C(=O)Nc1cc(F)c(F)c(F)c1` [Example 336, (6S)-6-methyl-3-[2-(oxazole-2-carbonyl)-7-oxo-2,6-diazaspiro[3.4]octan-6-yl]-N-(3,4,5-trifluorophenyl)-6,7-dihydro-4H-pyrazolo[1,5-a]pyrazine-5-carboxamide]: 66 nM.
Molecule `C[C@H]1Cn2ncc(N3CC(C)(C)COC3=O)c2CN1C(=O)Nc1cc(F)c(F)c(F)c1` [Example 294, (6S)-3-(5,5-dimethyl-2-oxo-1,3-oxazinan-3-yl)-6-methyl-N-(3,4,5-trifluorophenyl)-6,7-dihydro-4H-pyrazolo[1,5-a]pyrazine-5-carboxamide] showed an EC50 of 13 nM.
As to `C[C@H]1Cn2ncc(N3C(=O)Cc4ccccc43)c2CN1C(=O)Nc1cc(F)c(F)c(F)c1` [Example 338, (6S)-6-methyl-3-(2-oxoindolin-1-yl)-N-(3,4,5-trifluorophenyl)-6,7-dihydro-4H-pyrazolo[1,5-a]pyrazine-5-carboxamide], the EC50 worked out at 14 nM.
In turn, `CC1Cn2ncc(C3CCCC3)c2CN1C(=O)Nc1ccnc(Cl)c1` (centres unmarked) [Example 96, N-(2-chloro-4-pyridyl)-3-cyclopentyl-6-methyl-6,7-dihydro-4H-pyrazolo[1,5-a]pyrazine-5-carboxamide] had an EC50 of 72 nM.
For `CC1Cn2ncc(N3CCCC3=O)c2CN1C(=O)Nc1cc(F)c(F)c(F)c1` (centres unmarked) [Example 183, 6-methyl-3-(2-oxopyrrolidin-1-yl)-N-(3,4,5-trifluorophenyl)-6,7-dihydro-4H-pyrazolo[1,5-a]pyrazine-5-carboxamide], the response was half-maximal at 68 nM (EC50).
Molecule `N#Cc1cc(NC(=O)N2CCn3ncc(-c4ccc(F)cn4)c3C2)ccc1F` [Example 76, N-(3-cyano-4-fluoro-phenyl)-3-(5-fluoro-2-pyridyl)-6,7-dihydro-4H-pyrazolo[1,5-a]pyrazine-5-carboxamide] returned an EC50 of 95 nM.
Take `C[C@H]1Cn2ncc(N3CC(c4ccccc4)CC3=O)c2CN1C(=O)Nc1cc(F)c(F)c(F)c1` (stereo partly drawn) [Example 309, (6S)-6-methyl-3-(2-oxo-4-phenyl-pyrrolidin-1-yl)-N-(3,4,5-trifluorophenyl)-6,7-dihydro-4H-pyrazolo[1,5-a]pyrazine-5-carboxamide]: the EC50 turned out to be 5 nM.
The same measure for `CC1CN(C(=O)Nc2ccc(F)c(Cl)c2)Cc2c(-c3ccc(F)cc3)cnn21` (centres unmarked) [Example 230, N-(3-chloro-4-fluoro-phenyl)-3-(4-fluorophenyl)-7-methyl-6,7-dihydro-4H-pyrazolo[1,5-a]pyrazine-5-carboxamide]: 52 nM; for `O=C(Nc1ccc(F)c(C2CC2)c1)N1CCn2ncc(-c3ccc(F)cc3F)c2C1` [Example 150, N-(3-cyclopropyl-4-fluoro-phenyl)-3-(2,4-difluorophenyl)-6,7-dihydro-4H-pyrazolo[1,5-a]pyrazine-5-carboxamide]: 58 nM; for `N#Cc1cc(NC(=O)N2CCn3ncc(C4CCCC4)c3C2)ccc1F` [Example 79, N-(3-cyano-4-fluoro-phenyl)-3-cyclopentyl-6,7-dihydro-4H-pyrazolo[1,5-a]pyrazine-5-carboxamide]: 28 nM.
The same measure for `CC1Cn2ncc(-c3ccc(F)cn3)c2CN1C(=O)Nc1ccc(F)c(Cl)c1` (centres unmarked) [Example 94, N-(3-chloro-4-fluoro-phenyl)-3-(5-fluoro-2-pyridyl)-6-methyl-6,7-dihydro-4H-pyrazolo[1,5-a]pyrazine-5-carboxamide]: 33 nM; for `C[C@H]1Cn2ncc(N3CN(c4ncccn4)CC3=O)c2CN1C(=O)Nc1cc(F)c(F)c(F)c1` [Example 281, (6S)-6-methyl-3-(5-oxo-3-pyrimidin-2-yl-imidazolidin-1-yl)-N-(3,4,5-trifluorophenyl)-6,7-dihydro-4H-pyrazolo[1,5-a]pyrazine-5-carboxamide]: 52 nM; for `C[C@H]1Cn2ncc(N3CC(C)(C#N)CC3=O)c2CN1C(=O)Nc1cc(F)c(F)c(C(F)F)c1` (stereo partly drawn) [Example 361, (6S)-3-(4-cyano-4-methyl-2-oxo-pyrrolidin-1-yl)-N-[3-(difluoromethyl)-4,5-difluoro-phenyl]-6-methyl-6,7-dihydro-4H-pyrazolo[1,5-a]pyrazine-5-carboxamide]: 11 nM.
Next, `C[C@H]1Cn2ncc(N3C[C@H](Oc4ncccn4)CC3=O)c2CN1C(=O)Nc1cc(F)c(F)c(F)c1` [Example 415, (6S)-6-methyl-3-[(4R)-2-oxo-4-pyrimidin-2-yloxy-pyrrolidin-1-yl]-N-(3,4,5-trifluorophenyl)-6,7-dihydro-4H-pyrazolo[1,5-a]pyrazine-5-carboxamide]: 25 nM.
For the molecule `CC1Cn2ncc(-c3ccc(F)cc3F)c2CN1C(=O)Nc1cc(F)c(F)c(F)c1` (centres unmarked) [Example 178, 3-(2,4-difluorophenyl)-6-methyl-N-(3,4,5-trifluorophenyl)-6,7-dihydro-4H-pyrazolo[1,5-a]pyrazine-5-carboxamide], the EC50 was found to be 13 nM.
The same measure for `C[C@H]1Cn2ncc(N3CCOCC3=O)c2CN1C(=O)Nc1cc(F)c(F)c(Cl)c1` [Example 235, (6S)—N-(3-chloro-4,5-difluoro-phenyl)-6-methyl-3-(3-oxomorpholin-4-yl)-6,7-dihydro-4H-pyrazolo[1,5-a]pyrazine-5-carboxamide]: 39 nM; for `O=C(Nc1ccc(F)c(Cl)c1)N1CCn2cnc(-c3ccc(F)cc3F)c2C1` [Example 135, N-(3-chloro-4-fluoro-phenyl)-1-(2,4-difluorophenyl)-6,8-dihydro-5H-imidazo[1,5-a]pyrazine-7-carboxamide]: 23 nM.
The molecule `Cc1nc(C2CC(=O)N(c3cnn4c3CN(C(=O)Nc3cc(F)c(F)c(F)c3)[C@@H](C)C4)C2)no1` (stereo partly drawn) [Example 285, (6S)-6-methyl-3-[4-(5-methyl-1,2,4-oxadiazol-3-yl)-2-oxo-pyrrolidin-1-yl]-N-(3,4,5-trifluorophenyl)-6,7-dihydro-4H-pyrazolo[1,5-a]pyrazine-5-carboxamide] gave an EC50 of 7 nM.
The same measure for `C[C@H]1Cn2ncc(N3CN(S(C)(=O)=O)CC3=O)c2CN1C(=O)Nc1cc(F)c(F)c(F)c1` [Example 248, (6S)-6-methyl-3-(3-methylsulfonyl-5-oxo-imidazolidin-1-yl)-N-(3,4,5-trifluorophenyl)-6,7-dihydro-4H-pyrazolo[1,5-a]pyrazine-5-carboxamide]: 93 nM; for `CC1COC(=O)N(c2cnn3c2CN(C(=O)Nc2cc(F)c(F)c(F)c2)[C@@H](C)C3)C1` (stereo partly drawn) [Example 278, (6S)-6-methyl-3-(5-methyl-2-oxo-1,3-oxazinan-3-yl)-N-(3,4,5-trifluorophenyl)-6,7-dihydro-4H-pyrazolo[1,5-a]pyrazine-5-carboxamide]: 27 nM; for `CO[C@H]1CC(=O)N(c2cnn3c2CN(C(=O)Nc2cc(F)c(F)c(F)c2)[C@@H](C)C3)C1` [Example 378, (6S)-3-[(4S)-4-methoxy-2-oxo-pyrrolidin-1-yl]-6-methyl-N-(3,4,5-trifluorophenyl)-6,7-dihydro-4H-pyrazolo[1,5-a]pyrazine-5-carboxamide]: 28 nM.
For `COCC1CC(=O)N(c2cnn3c2CN(C(=O)Nc2cc(F)c(F)c(F)c2)[C@@H](C)C3)C1` (stereo partly drawn) [Example 299, (6S)-3-[4-(methoxymethyl)-2-oxo-pyrrolidin-1-yl]-6-methyl-N-(3,4,5-trifluorophenyl)-6,7-dihydro-4H-pyrazolo[1,5-a]pyrazine-5-carboxamide], the half-maximal effective concentration (EC50) came to 80 nM.
In the case of `COCC1CC(=O)N(c2cnn3c2CN(C(=O)Nc2ccc(F)c(Cl)c2)[C@@H](C)C3)C1` (stereo partly drawn) [Example 295, (6S)—N-(3-chloro-4-fluoro-phenyl)-3-[4-(methoxymethyl)-2-oxo-pyrrolidin-1-yl]-6-methyl-6,7-dihydro-4H-pyrazolo[1,5-a]pyrazine-5-carboxamide], the EC50 was 33 nM.

Values taken from US11168086B2, “Methods of synthesizing pyrazine compounds” (Hoffmann-La Roche Inc., priority 2015, dated 2021).
